In EP0444482B1, “Oxetanones” (F. HOFFMANN-LA ROCHE AG, priority 1990, dated 1991):

Legend:
Schweinepankreaslipase = target: T1, Schweinepankreaslipase (Sus scrofa, UniProt P00591); assay: Inhibition of pancreatic lipase (titrimetric measurement of oleic acid released from triolein); assay type: biochemical, Schwein; details: substrate triolein emulsion, pH 8, NaOH consumption over 10 min, 1-3 µg lipase; concentration giving half-maximal inhibition of lipase activity; read-out: IC₅₀ (converted)
T1 sequence (P00591 1-450): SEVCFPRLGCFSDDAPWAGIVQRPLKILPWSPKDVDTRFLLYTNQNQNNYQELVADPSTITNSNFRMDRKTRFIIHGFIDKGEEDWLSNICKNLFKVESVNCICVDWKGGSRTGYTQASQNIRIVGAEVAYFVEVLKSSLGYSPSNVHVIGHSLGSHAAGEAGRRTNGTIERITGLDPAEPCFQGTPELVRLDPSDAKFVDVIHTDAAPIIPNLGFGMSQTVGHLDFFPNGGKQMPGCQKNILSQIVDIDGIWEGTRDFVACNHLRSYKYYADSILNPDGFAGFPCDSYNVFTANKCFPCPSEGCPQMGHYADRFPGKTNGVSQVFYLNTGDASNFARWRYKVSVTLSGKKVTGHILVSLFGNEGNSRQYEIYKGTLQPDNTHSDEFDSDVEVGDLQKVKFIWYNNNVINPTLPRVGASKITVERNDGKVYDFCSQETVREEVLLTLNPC
Protocol: Die Hemmung der Pankreaslipase durch die Oxetanone der Formel I kann experimentell gezeigt werden, indem man die bei der Spaltung von Triolein durch Schweinepankreaslipase freigesetzte Oelsäure titrimetrisch erfasst. Zu einer Emulsion, welche 1 mM Taurodeoxycholat, 9 mM Taurocholat, 0,1 mM Cholesterin, 1 mM Eilezithin, 15 mg/ml BSA, 2 mM Tris-HCl, 100 mM Natriumchlorid, 1 mM Calciumchlorid und das Substrat Triolein enthält, gibt man die in Aethanol oder Dimethylsulfoxid (10% des Emulsionsvolumens) gelöste Verbindung der Formel I und startet die Reaktion durch Zugabe von 1-3 µg Schweinepankreaslipase. Das pH wird während der Reaktion durch Zugabe von Natronlauge bei 8 gehalten. Aus dem während 10 Minuten ermittelten Verbrauch an Natronlauge wird die IC₅₀ berechnet. Die IC₅₀ ist diejenige Konzentration, bei der die Lipaseaktivität halbmaximal gehemmt wird. Die nachfolgende Tabelle enthält die für die Verbindungen der Formel I ermittelten IC₅₀-Werte in µg/ml.

[1] = Acute toxicity after a single oral administration; details: mouse, in vivo, mice, read-out: akute Toxizität
Protocol: Die akute Toxizität (nach einmaliger oraler Verabreichung an Mäusen) beträgt mehr als 5000 mg/kg für die Produkte der Beispiele 3d, 3h, 3i, 3l, 4a und 10a, b, e und f.

Row | SMILES | IC50 (Schweinepankreaslipase) [nM] | LD50 [1] [mg/kg]
1 | CCCCCCCCCCC[C@@H](C[C@@H]1OC(=O)[C@H]1CCCCCC)OC(=O)C(CCC)C(N)=O (mixture of isomers) [Beispiel 2d, (S)-1-[[(2S,3S)-3-Hexyl-4-oxo-2-oxetanyl]methyl]-dodecyl-(RS) -2-carbamoylvalerat] | 249 | –
2 | CCCCCCCCCCC[C@@H](C[C@@H]1OC(=O)[C@H]1CCCCCC)OC(=O)C(CC(C)C)C(N)=O (mixture of isomers) [Beispiel 3f, (S)-1-[[(2S,3S)-3-Hexyl-4-oxo-2-oxetanyl]methyl]dodecyl-(RS)-2-carbamoyl-4-methylvalerat] | 167 | –
3 | CCCCCCCCCCC[C@@H](C[C@@H]1OC(=O)[C@H]1CCCCCC)OC(=O)C(C)C(N)=O (mixture of isomers) [Beispiel 3i, (S)-1-[[(2S,3S)-3-Hexyl-4-oxo-2-oxetanyl]methyl]dodecyl-(RS)-2-methylmalonamat] | 926 | > 5000
4 | CCCCCCCCCCC[C@@H](C[C@@H]1OC(=O)[C@H]1CCCCCC)OC(=O)C(CCCC)C(N)=O (mixture of isomers) [Beispiel 3k, (S)-1-[[(2S,3S)-3-Hexyl-4-oxo-2-oxetanyl]methyl]dodecyl-(RS)-2-butylmalonamat] | 242 | –
5 | CCCCCCCCCCCCCCCCC[C@@H](C[C@@H]1OC(=O)[C@H]1CC)OC(=O)C(C(N)=O)C(C)C (single isomer, unassigned) [Beispiel 1a] | 62.8 | –
6 | CCCCCCCCCCCCCCCCC[C@@H](C[C@@H]1OC(=O)[C@H]1CC)OC(=O)C(C(N)=O)C(C)C (single isomer, unassigned) [Beispiel 1b] | 49 | –
7 | CCCCCCCCCCC[C@@H](C[C@@H]1OC(=O)[C@H]1CCCCCC)OC(=O)C(C(N)=O)C(C)C (single isomer, unassigned) [Beispiel 2b] | 131 | –
8 | CCCCC/C=C\C/C=C\CCCCCCC[C@@H](C[C@@H]1OC(=O)[C@H]1CC)OC(=O)C(C(N)=O)C(C)C (single isomer, unassigned) [Beispiel 2g1] | 103 | –
9 | CCCCC/C=C\C/C=C\CCCCCCC[C@@H](C[C@@H]1OC(=O)[C@H]1CC)OC(=O)C(C(N)=O)C(C)C (single isomer, unassigned) [Beispiel 2g2] | 25.7 | –
10 | CCCCCCCCCCCCCCCCC[C@@H](C[C@@H]1OC(=O)[C@H]1CC)OC(=O)C(C(N)=O)C(C)(C)C (single isomer, unassigned) [Beispiel 37] | 64.9 | –
11 | CCCCCCCCCCCCCCCCC[C@@H](C[C@@H]1OC(=O)[C@H]1CC)OC(=O)C(CCC)C(N)=O (stereo partly drawn) [Beispiel 2e, (S)-1-[[(2S,3S)-3-Aethyl-4-oxo-2-oxetanyl]-methyl]octadecyl-(RS)-2-carbamoylvalerat] | 100 | –
12 | CCCCCCCCCCCCCCCCC[C@@H](C[C@@H]1OC(=O)[C@H]1CC)OC(=O)C1(C(N)=O)OCCO1 [Beispiel 2f, (S)-1-[[(2S,3S)-3-Aethyl-4-oxo-2-oxetanyl]-methyl]octadecyl-2-carbamoyl-1,3-dioxolan-2-carboxylat] | 894 | –
13 | CCCCCCCCCCC[C@@H](C[C@@H]1OC(=O)[C@H]1CCCCCC)OC(=O)CC(N)=O [Beispiel 3c, 2-Carbamoylessigsäure-(S)-1-[[(2S,3S)-3-hexyl-4-oxo-2-oxetanyl]methyl]dodecylester] | 887 | –
14 | CCCCCCCCCCC[C@@H](C[C@@H]1OC(=O)[C@H]1CCCCCC)OC(=O)C(N)=O [Beispiel 3d, (S)-1-[[(2S,3S)-3-Hexyl-4-oxo-2-oxetanyl]methyl]dodecyloxamat] | 2110 | > 5000
15 | CCCCCCCCCCC[C@@H](C[C@@H]1OC(=O)[C@H]1CCCCCC)OC(=O)CC(=O)NC [Beispiel 3e, (S)-1-[[(2S,3S)-3-Hexyl-4-oxo-2-oxetanyl]methyl]dodecyl -N-methylmalonamat] | 3110 | –
16 | CCCCCCCCCCC[C@@H](C[C@@H]1OC(=O)[C@H]1CCCCCC)OC(=O)C1(C(N)=O)CCCCC1 [Beispiel 3g, (S)-1-[[(2S,3S)-3-Hexyl-4-oxo-2-oxetanyl]methyl]dodecyl-1-carbamoylcydohexancarboxylat] | 579 | –
17 | CCCCCCCCCCC[C@@H](C[C@@H]1OC(=O)[C@H]1CCCCCC)OC(=O)C(C)(C)C(N)=O [Beispiel 3h, (S)-1-[[(2S,3S)-3-Hexyl-4-oxo-2-oxetanyl]methyl]dodecyl-2,2-dimethylmalonamat] | 4490 | > 5000
18 | CCCCCCCCCCC[C@@H](C[C@@H]1OC(=O)[C@H]1CCCCCC)OC(=O)C(CC)C(N)=O (stereo partly drawn) [Beispiel 3j, (S)-1-[[(2S,3S)-3-Hexyl-4-oxo-2-oxetanyl]methyl]dodecyl-(RS)-2-äthylmalonamat] | 342 | –
19 | CCCCCCCCCCC[C@@H](C[C@@H]1OC(=O)[C@H]1CCCCCC)OC(=O)C(CC)(CC)C(N)=O [Beispiel 3l, (S)-1-[[(2S,3S)-3-Hexyl-4-oxo-2-oxetanyl]methyl]dodecyl-2,2-diäthylmalonamat] | 1570 | > 5000
20 | CCCCCCCCCCCCCCCCC[C@@H](C[C@@H]1OC(=O)[C@H]1CC)OC(=O)C1(C(N)=O)CCCCC1 [Beispiel 4a, (S)-1-[[(2S,3S)-3-Aethyl-4-oxo-2-oxetanyl]methyl]octadecyl-1-carbamoylcyclohexancarboxylat] | 299 | > 5000
21 | CCCCCCCCCCCCCCCCC[C@@H](C[C@@H]1OC(=O)[C@H]1CC)OC(=O)C(N)=O [Beispiel 10a, (S)-1-[[(2S,3S)-3-Aethyl-4-oxo-2-oxetanyl]methyl]octadecyloxamat] | 183 | > 5000
22 | CCCCCCCCCCCCCCCCC[C@@H](C[C@@H]1OC(=O)[C@H]1CC)OC(=O)CC(N)=O [Beispiel 10b, (S)-1-[[(2S,3S)-3-Aethyl-4-oxo-2-oxetanyl]methyl]octadecylmalonamat] | 89.8 | > 5000
23 | CCCCCCCCCCCCCCCCC[C@@H](C[C@@H]1OC(=O)[C@H]1CC)OC(=O)C(C)C(N)=O (stereo partly drawn) [Beispiel 10e, (S)-1-[[(2S,3S)-3-Aethyl-4-oxo-2-oxetanyl]methyl]octadecyl-(RS)-2-methylmalonamat] | 56 | > 5000
24 | CCCCCCCCCCCCCCCCC[C@@H](C[C@@H]1OC(=O)[C@H]1CC)OC(=O)CCC(N)=O [Beispiel 10f, (S)-1-[[(2S,3S)-3-Aethyl-4-oxo-2-oxetanyl]methyl]octadecyl-succinamat] | 664 | > 5000
25 | CCCCCCCCCCCCCCCCC[C@@H](C[C@@H]1OC(=O)[C@H]1CC)OC(=O)C1(C(N)=O)CCCC1 [Beispiel 43, (S)-1-[[(2S,3S)-3-Aethyl-4-oxo-2-oxetanyl]methyl]octadecyl-1-carbamoylcyclopentancarboxylat] | 230 | –
26 | CCCCCCCCCCC[C@@H](C[C@@H]1OC(=O)[C@H]1CCCCCC)OC(=O)C(Cc1ccccc1)C(N)=O (stereo partly drawn) [Beispiel 45, (S)-1-[[(2S,3S)-3-Hexyl-4-oxo-2-oxetanyl]methyl]dodecyl-(RS)-2-benzylmalonomat] | 88.7 | –
27 | CCCCCCCCCCC[C@@H](C[C@@H]1OC(=O)[C@H]1CCCCCC)OC(=O)CCSCCC(N)=O [Beispiel 51, (S)-1-[[(2S,3S)-3-Hexyl-4-oxo-2-oxetanyl]methyl]dodecyl-3-[(2-carbamoyläthyl)thio]propionat] | 701 | –

Now from value to molecule, other results behind:

Row | IC50 (Schweinepankreaslipase) [nM] | SMILES | LD50 [1] [mg/kg]
28 | 162 | CCCCCCCCCCC[C@@H](C[C@H]1OC(=O)[C@@H]1Cc1ccccc1)OC(=O)C(C(N)=O)C(C)C (single isomer, unassigned) [Beispiel 7b] | –
29 | 112 | CCCCCCCCCCC[C@@H](CC1OC(=O)C1SCCCCC)OC(=O)C(C(N)=O)C(C)C (stereo partly drawn) [Beispiel 6b, (S)-1-[[(2S,3S oder 2R,3R)-4-Oxo-3-pentylthio-2-oxetanyl]methyl]-dodecyl-[S:R oder R:S(2:1)]-2-isopropylmalonamat] | –
30 | 208 | CCCCCCCCCCCCCCCCC[C@@H](C[C@@H]1OC(=O)[C@H]1CC)OC(=O)CC(=O)NC [Beispiel 10c, (S)-1-[[(2S,3S)-3-Aethyl-4-oxo-2-oxetanyl]methyl]octadecyl-N-methylmalonamat] | –
31 | 948 | CCCCCCCCCCCCCCCCC[C@@H](C[C@@H]1OC(=O)[C@H]1CC)OC(=O)CC(=O)N(C)C [Beispiel 10d, (S)-1-[[(2S,3S)-3-Aethyl-4-oxo-2-oxetanyl]methyl]octadecyl-N,N-dimethylmalonamat] | –
32 | 567 | CCCCCCCCCCCCCCCCC[C@@H](C[C@@H]1OC(=O)[C@H]1CC)OC(=O)[C@H]1CCC(=O)N1 [Beispiel 78c, 5-Oxo-D-prolin-(S)-1-[[(2S,3S)-3-äthyl-4-oxo-2-oxetanyl]methyl]octadecyl-ester] | –
33 | 103 | CCCCCCCCCCCCCCCCC[C@@H](C[C@@H]1OC(=O)[C@H]1CC)OC(=O)[C@@H]1CCC(=O)N1 [Beispiel 78d, 5-Oxo-L-prolin-(S)-1-[[(2S,3S)-3-äthyl-4-oxetanyl]methyl]octadecyl-ester] | –
